This is an account of results in patent US7989469B2, “Certain chemical entities, compositions, and methods” (Cytokinetics, Incorporated, priority 2008, dated 2011).

The test system of this assay is rabbit skeletal muscle myofibril preparations (approximately 90% fast fibers). Kind of assay: Activation of fast skeletal muscle fibers: enzymatic activity of myofibril preparations (PUMA assay system). It counts as biochemical. Details: unit not given here. As to conditions: detergent treated myofibrils at pCa25%, 500 μM ATP. From the text: Fast fiber activators were identified by measuring the enzymatic activity of muscle myofibril preparations using the proprietary PUMA™ (see, e.g., U.S. Pat. Nos. 6,410,254, 6,743,599, 7,202,051, and 7,378,254) assay system. Myofibril preparations consisted of rabbit skeletal muscle (approximately 90% fast fibers) that had been treated with a detergen (triton X-100) to remove cellular membranes and then homogenized. This preparation retained all of the sarcomeric components in a native conformation and the enzymatic activity was still regulated by calcium. Compounds were tested using a myofibril suspension and a level of calcium sufficient to increase enzymatic activity of the myofibrils to 25% of their maximal rate (termed pCa25%). Enzymatic activity was tracked via a kinetic assay with a UV absorption readout. Hits were identified as compounds that increased the rate of enzymatic activity by greater than 40% at 40 μM. Myofibril preparations are calcium regulated and were screened at a level of calcium sufficient to produce a 25% increase in enzymatic rate. Detergent treated myofibrils were incubated with 500 μM ATP and 40 μM compound and a kinetic read of UV absorbance performed. Data was normalized to control wells.

On to `C[C@@H](CCO)n1c(O)nc2ncc(Cl)c(-c3ccc(F)cc3)c21` [1-((1S)-3-hydroxy-1-methylpropyl)-6-chloro-7-(4-fluorophenyl)imidazo[4,5-b]pyridin-2-ol], for which the “AC1.4 Median” value (median value (no †)) is 2.309. With `CC(C)(C)n1c(O)nc2ncc(Cl)c(-c3ccc(F)cc3)c21` [1-(tert-butyl)-6-chloro-7-(4-fluorophenyl)imidazo[4,5-b]pyridin-2-ol], the “AC1.4 Median” value (cells marked †: Mean value) is 0.199†. Take `CCC(CC)n1c(O)nc2ncc(Cl)c(-c3cccc(S(C)(=O)=O)c3)c21` [1-[6-chloro-1-(ethylpropyl)-2-hydroxyimidazo[4,5-b]pyridin-7-yl]-3-(methylsulfonyl)benzene]: the “AC1.4 Median” value (median value (no †)) is reported as 38.633. For `CCC(CC)n1c(O)nc2ncc(Cl)c(-c3ccc(S(C)(=O)=O)cc3)c21` [1-[6-chloro-1-(ethylpropyl)-2-hydroxyimidazo[4,5-b]pyridin-7-yl]-4-(methylsulfonyl)benzene], for the setting “median value (no †)”, the “AC1.4 Median” value was found to be 45.324. On the same count and under the same terms, to `CC[C@H](COC)n1c(O)nc2ncc(Cl)c(-c3ccc(F)cc3)c21` [1-[(1R)-1-(methoxymethyl)propyl]-6-chloro-7-(4-fluorophenyl)imidazo[4,5-b]pyridin-2-ol] belongs 0.249.

With `CC[C@H](COC)n1c(O)nc2ncc(Cl)c(-c3ccc(F)cn3)c21` [1-[(1R)-1-(methoxymethyl)propyl]-6-chloro-7-(5-fluoro(2-pyridyl))imidazo[4,5-b]pyridin-2-ol], the “AC1.4 Median” value (median value (no †)) is listed as 1.142. On the same count and under the same terms, the result for `CC[C@@H](COC)n1c(O)nc2ncc(Cl)c(-c3ccc(F)cc3)c21` [1-[(1S)-1-(methoxymethyl)propyl]-6-chloro-7-(4-fluorophenyl)imidazo[4,5-b]pyridin-2-ol] reads 0.317. As to `CC[C@@H](COC)n1c(O)nc2ncc(Cl)c(-c3ccc(F)cn3)c21` [1-[(1S)-1-(methoxymethyl)propyl]-6-chloro-7-(5-fluoro(2-pyridyl))imidazo[4,5-b]pyridin-2-ol], for the setting “median value (no †)”, the “AC1.4 Median” value is 3.771.

Take `CC(C)C[C@@H](CO)n1c(O)nc2ncc(Cl)c(-c3ccc(F)cc3)c21` [1-[(1S)-2-hydroxy-1-(2-methylpropyl)ethyl]-6-chloro-7-(4-fluorophenyl)imidazo[4,5-b]pyridin-2-ol]: the “AC1.4 Median” value (cells marked †: Mean value) was 0.072†. In the case of `CCC(CC)n1c(O)nc2ncc(Cl)c(-c3ccccc3C=O)c21` [2-[6-chloro-1-(ethylpropyl)-2-hydroxyimidazo[4,5-b]pyridin-7-yl]benzaldehyde], the “AC1.4 Median” value (median value (no †)) turned out to be 1.689.

Turning to `CCC(CC)n1c(O)nc2ncc(Cl)c(-c3ccccc3C(=O)O)c21` [2-[6-chloro-1-(ethylpropyl)-2-hydroxyimidazo[4,5-b]pyridin-7-yl]benzoic acid], the “AC1.4 Median” value (median value (no †)) turned out to be 30.881.

With `CCC(COP(=O)(O)O)c1nc2nc(O)[nH]c2c(-c2ccc(F)c(F)c2)c1Cl` (stereo not shown) [2-[7-(3,4-difluorophenyl)-6-chloro-2-hydroxyimidazo[4,5-b]pyridinyl]butyl dihydrogen phosphate], the “AC1.4 Median” value (median value (no †)) was determined as 44.713. Still for that read-out and setting: to `CC[C@H](c1nc2nc(O)[nH]c2c(-c2ccc(F)cc2)c1Cl)C(CO)CO` [2-{(1S)-1-[6-chloro-7-(4-fluorophenyl)-2-hydroxyimidazo[4,5-b]pyridinyl]propyl}propane-1,3-diol] belongs 4.6812. On the same count and under the same terms, the result for `CCC(CC)n1c(O)nc2ncc(Cl)c(-c3cccc(C=O)c3)c21` [3-[6-chloro-1-(ethylpropyl)-2-hydroxyimidazo[4,5-b]pyridin-7-yl]benzaldehyde] reads 1.943. `CCC(CC)n1c(O)nc2ncc(Cl)c(-c3ccc(C#N)c(F)c3)c21` [4-(6-chloro-2-hydroxy-1-(pentan-3-yl)-1H-imidazo[4,5-b]pyridin-7-yl)-2-fluorobenzonitrile]: the “AC1.4 Median” value (cells marked †: Mean value) is 0.458†. As to `CCC(CC)n1c(O)nc2ncc(Cl)c(-c3ccnc(C#N)c3)c21` [4-(6-chloro-2-hydroxy-1-(pentan-3-yl)-1H-imidazo[4,5-b]pyridin-7-yl)picolinonitrile], the “AC1.4 Median” value (median value (no †)) amounted to 9.842.

For `CC[C@@H](CO)n1c(O)nc2ncc(Cl)c(-c3ccc(C#N)cc3)c21` [4-[1-((1S)-1-ethyl-2-hydroxyethyl)-6-chloro-2-hydroxyimidazo[4,5-b]pyridin-7-yl]benzenecarbonitrile], the “AC1.4 Median” value (median value (no †)) is recorded as 3.249. The same measure, in the same setting: the result for `OCCn1c(O)nc2ncc(Cl)c(-c3ccccc3)c21` [6-chloro-1-(2-hydroxyethyl)-7-phenylimidazo[4,5-b]pyridin-2-ol] reads 34.551. As to `CCC(CC)n1c(O)nc2ncc(Cl)c(-c3cccs3)c21` [6-chloro-1-(ethylpropyl)-7-(2-thienyl)imidazo[4,5-b]pyridin-2-ol], the “AC1.4 Median” value (cells marked †: Mean value) was 0.136†. Same read-out and setting: the result for `CCC(CC)n1c(O)nc2ncc(Cl)c(-c3ccsc3)c21` [6-chloro-1-(ethylpropyl)-7-(3-thienyl)imidazo[4,5-b]pyridin-2-ol] reads 0.124†. On the same count and under the same terms, to `CCC(CC)n1c(O)nc2ncc(Cl)c(-c3ccccc3)c21` [6-chloro-1-(ethylpropyl)-7-phenylimidazo[4,5-b]pyridin-2-ol] belongs 0.110†. Turning to `CCC(C)n1c(O)nc2ncc(Cl)c(-n3cccn3)c21` (stereo not shown) [6-chloro-1-(methylpropyl)-7-pyrazolylimidazo[4,5-b]pyridin-2-ol], the “AC1.4 Median” value (median value (no †)) was 1.3927. On the same count and under the same terms, the result for `COCC(COC)n1c(O)nc2ncc(Cl)c(-n3cccn3)c21` [6-chloro-1-[2-methoxy-1-(methoxymethyl)ethyl]-7-pyrazolylimidazo[4,5-b]pyridin-2-ol] reads 27.9068; that for `Oc1nc2ncc(Cl)c(-c3ccc(F)cc3)c2n1C1CCCC1` [6-chloro-1-cyclopentyl-7-(4-fluorophenyl)imidazo[4,5-b]pyridin-2-ol], 1.677; that for `CC(C)(CO)n1c(O)nc2ncc(Cl)c(-c3ccc(F)cc3)c21` [6-chloro-7-(4-fluorophenyl)-1-(2-hydroxy-tert-butyl)imidazo[4,5-b]pyridin-2-ol], 0.760. For the molecule `OCCCn1c(O)nc2ncc(Cl)c(-c3ccc(F)cc3)c21` [6-chloro-7-(4-fluorophenyl)-1-(3-hydroxypropyl)imidazo[4,5-b]pyridin-2-ol], for the setting “median value (no †)”, the “AC1.4 Median” value is on record as 7.015. In the case of `CC(C)n1c(O)nc2ncc(Cl)c(-c3ccc(F)cc3)c21` [6-chloro-7-(4-fluorophenyl)-1-(methylethyl)imidazo[4,5-b]pyridin-2-ol], the “AC1.4 Median” value (cells marked †: Mean value) is reported as 0.096†.

Take `CC(C)CC(CO)n1c(O)nc2ncc(Cl)c(-c3ccc(F)cc3)c21` (stereo not shown) [6-chloro-7-(4-fluorophenyl)-1-[2-hydroxy-1-(2-methylpropyl)ethyl]imidazo[4,5-b]pyridin-2-ol]: the “AC1.4 Median” value (median value (no †)) is 0.210. Turning to `Cn1c(O)nc2ncc(Cl)c(-c3ccc(F)cc3)c21` [6-chloro-7-(4-fluorophenyl)-1-methylimidazo[4,5-b]pyridin-2-ol], for the setting “median value (no †)”, the “AC1.4 Median” value was 12.620. Take `C=CCn1c(O)nc2ncc(Cl)c(-c3ccc(F)cc3)c21` [6-chloro-7-(4-fluorophenyl)-1-prop-2-enylimidazo[4,5-b]pyridin-2-ol]: for the setting “median value (no †)”, the “AC1.4 Median” value came out at 1.947. As to `CC[C@H](COC(C)=O)c1nc2nc(O)[nH]c2c(-c2ccc(F)cc2)c1Cl` [(2S)-2-[6-chloro-7-(4-fluorophenyl)-2-hydroxyimidazo[4,5-b]pyridinyl]butyl acetate], the “AC1.4 Median” value (cells marked †: Mean value) is recorded as 0.234†.
